Data set [1] has as its system Puccinia recondita f. sp. tritici. The data set is described as follows: Example A1: fungicidal activity against Puccinia recondita f. sp. tritici / wheat / leaf disc preventative (brown rust). Format: in vivo. The following applies: foliar, 200 ppm in the applied formulation, wheat leaf segments, compared to untreated, read-out: disease control. Here is the method: (§1) Leaf disks or leaf segments of various plant species are cut from plants grown in a greenhouse. The cut leaf disks or segments are placed in multiwell plates (24-well format) onto water agar. The leaf disks are sprayed with a test solution before (preventative) or after (curative) inoculation. Compounds to be tested are prepared as DMSO solutions (max. 10 mg/mL) which are diluted to the appropriate concentration with 0.025% Tween20 just before spraying. The inoculated leaf disks or segments are incubated under defined conditions (temperature, relative humidity, light, etc.) according to the respective test system. A single evaluation of disease level is carried out 3 to 14 days after inoculation, depending on the pathosystem. Percent disease control relative to the untreated check leaf disks or segments is then calculated.
Wheat leaf segments cv. Kanzler were placed on agar in multiwell plates (24-well format) and sprayed with the formulated test compound diluted in water. The leaf disks were inoculated with a spore suspension of the fungus 1 day after application. The inoculated leaf segments were incubated at 19° C. and 75% relative humidity (rh) under a light regime of 12 hours light/12 hours darkness in a climate cabinet and the activity of a compound was assessed as percent disease control compared to untreated when an appropriate level of disease damage appears in untreated check leaf segments (7 to 9 days after application).

Data set [2] has the same test system. The data set is described as follows: Example A2: fungicidal activity against Puccinia recondita f. sp. tritici / wheat / leaf disc curative (brown rust). The note with it: foliar, 24 h, 200 ppm in the applied formulation, curative (applied 1 day after inoculation), wheat leaf segments, read-out: disease control. In kind it is in vivo. Here is the method: as §1
Wheat leaf segments cv. Kanzler are placed on agar in multiwell plates (24-well format). The leaf segments are then inoculated with a spore suspension of the fungus. Plates were stored in darkness at 19° C. and 75% relative humidity. The formulated test compound diluted in water was applied 1 day after inoculation. The leaf segments were incubated at 19° C. and 75% relative humidity under a light regime of 12 hours light/12 hours darkness in a climate cabinet and the activity of a compound was assessed as percent disease control compared to untreated when an appropriate level of disease damage appears in untreated check leaf segments (6 to 8 days after application).

A further data set concerns Phakopsora pachrhizi. The data set is described as follows: Example A3: fungicidal activity against Phakopsora pachrhizi / soybean / leaf disc preventative (Asian soybean rust). The following applies: Phakopsora pachyrhizi, foliar, 200 ppm in the applied formulation, soybean leaf disks, read-out: disease control. In kind it is in vivo. Here is the method:
as §1
Soybean leaf disks are placed on water agar in multiwell plates (24-well format) and sprayed with the formulated test compound diluted in water. One day after application leaf discs are inoculated by spraying a spore suspension on the lower leaf surface. After an incubation period in a climate cabinet of 24-36 hours in darkness at 20° C. and 75% rh leaf disc are kept at 20° C. with 12 h light/day and 75% rh. The activity of a compound is assessed as percent disease control compared to untreated when an appropriate level of disease damage appears in untreated check leaf disks (12 to 14 days after application).

Data set [3] deals with Glomerella lagenarium (Colletotrichum lagenarium). The data set is described as follows: Example A4: fungicidal activity against Glomerella lagenarium (Colletotrichum lagenarium) liquid culture / cucumber / preventative (anthracnose). In kind it is cell-based. The note with it: Colletotrichum orbiculare, 20 ppm in the applied formulation, growth measured photometrically 3 to 4 days after application, read-out: disease control. Here is the method:
Mycelia fragments or conidia suspensions of a fungus prepared either freshly from liquid cultures of the fungus or from cryogenic storage, are directly mixed into nutrient broth. DMSO solutions of the test compound (max. 10 mg/mL) are diluted with 0.025% Tween20 by a factor of 50 and 10 μL of this solution is pipetted into a microtiter plate (96-well format). The nutrient broth containing the fungal spores/mycelia fragments is then added to give an end concentration of the tested compound. The test plates are incubated in the dark at 24° C. and 96% relative humidity. The inhibition of fungal growth is determined photometrically after 2 to 7 days, depending on the pathosystem, and percent antifungal activity relative to the untreated check is calculated. Conidia of the fungus from cryogenic storage are directly mixed into nutrient broth (PDB—potato dextrose broth). After placing a (DMSO) solution of test compound into a microtiter plate (96-well format), the nutrient broth containing the fungal spores is added.

Some results are limits rather than exact numbers.

For `CCN(CC)C(=O)c1cnn(Cc2ccc(-c3noc(C(F)(F)F)n3)cc2)c1` [X.14, N,N-diethyl-1-[[4-[5-(trifluoromethyl)-1,2,4-oxadiazol-3-yl]phenyl]methyl]pyrazole-4-carboxamide], the melting point lay within 86 to 96 °C. Further, in data set [1], the pest or weed control at 200 ppm is no less than 80%. The pest or weed control at 200 ppm in data set [2] is no less than 80%. The pest or weed control at 200 ppm with Phakopsora pachrhizi was no less than 80%. In addition, the inhibition of growth at 20 ppm in data set [3] was no less than 80%.

With `O=C(NC1CC1)c1cnn(Cc2ccc(-c3noc(C(F)(F)F)n3)cc2)c1` [X.04, N-cyclopropyl-1-[[4-[5-(trifluoromethyl)-1,2,4-oxadiazol-3-yl]phenyl]methyl]pyrazole-4-carboxamide], the melting point fell in the range of 189 to 194 °C. Further, in data set [1], the pest or weed control at 200 ppm is no less than 80%. Also, the pest or weed control at 200 ppm in data set [2] was no less than 80%. In addition, the pest or weed control at 200 ppm in the data set on Phakopsora pachrhizi is no less than 80%. The inhibition of growth at 20 ppm in data set [3] was no less than 80%.

In turn, `FC(F)(F)c1nc(-c2ccc(Cn3nnc4cccnc43)cc2)no1` [X.11, 3-[4-(triazolo[4,5-b]pyridin-3-ylmethyl)phenyl]-5-(trifluoromethyl)-1,2,4-oxadiazole] had a melting point of 143 to 144 °C. Besides, in data set [1], the pest or weed control at 200 ppm is no less than 80%. Moreover, the pest or weed control at 200 ppm in data set [2] is no less than 80%. Further, the pest or weed control at 200 ppm with Phakopsora pachrhizi is no less than 80%. For the same compound, the inhibition of growth at 20 ppm in data set [3] was no less than 80%.

The compound `COC(=O)c1cnn(Cc2ccc(-c3noc(C(F)(F)F)n3)cc2)c1` [X.12, methyl 1-[[4-[5-(trifluoromethyl)-1,2,4-oxadiazol-3-yl]phenyl]methyl]pyrazole-4-carboxylate] yielded a melting point of 122 to 129 °C. Further, the pest or weed control at 200 ppm in data set [1] is no less than 80%. Besides, in data set [2], the pest or weed control at 200 ppm was no less than 80%. Besides, in the data set with Phakopsora pachrhizi, the pest or weed control at 200 ppm was no less than 80%. The inhibition of growth at 20 ppm in data set [3] is no less than 80%.

These data come from patent US20200315176A1, “FUNGICIDAL COMPOSITIONS” (SYNGENTA PARTICIPATIONS AG, priority 2017, published 2020).
